Like-named read-outs stand apart in the source and are kept apart here.
Columns and labels:
[1] = tested on: Maize; test: Pre-emergence test/greenhouse; format: in vivo; conditions: after three weeks, crop plant
Protocol: (§1) Solvent: 5 parts by weight of acetone
(§2) Emulsifier: 1 part by weight of alkylaryl polyglycol ether
(§3) To produce a suitable preparation of active compound, 1 part by weight of active compound is mixed with the stated amount of solvent, the stated amount of emulsifier is added and the concentrate is diluted with water to the desired concentration.
(§4) Seeds of the test plants are sown in normal soil. After about 24 hours, the soil is sprayed with the preparation of active compound such that the particular amount of active compound desired is applied per unit area. The concentration of the spray liquor is chosen so that the particular amount of active compound desired is applied in 1000 litre of water per hectare.
(§5) After three weeks, the degree of damage to the plants is rated in % damage in comparison to the development of the untreated controls.
(§6) 0%=no effect (like untreated control)

[2] = tested on: Avena fatua; test: Pre-emergence test/greenhouse; format: in vivo; conditions: 500 g of ai/ha, after three weeks
Protocol: as §1, §2, §3, §4, §5, §6

[3] = tested on: Alopecurus; test: Pre-emergence test/greenhouse; format: in vivo; conditions: 500 g of ai/ha, after three weeks
Protocol: as §1, §2, §3, §4, §5, §6

[4] = tested on: Echinochloa; test: Pre-emergence test/greenhouse; format: in vivo; conditions: 500 g of ai/ha, after three weeks
Protocol: as §1, §2, §3, §4, §5, §6

[5] = tested on: Setaria; test: Pre-emergence test/greenhouse; format: in vivo; conditions: after three weeks
Protocol: as §1, §2, §3, §4, §5, §6

[6] = tested on: weeds; test: Pre-emergence test; format: in vivo; conditions: result in words
Protocol: as §1, §2, §3, §4, §5, §6

[7] = tested on: Ipomoea; test: Post-emergence test/greenhouse; format: in vivo; conditions: 500 g of ai/ha, after three weeks
Protocol: as §1, §2, §3
(§7) Test plants which have a height of 5 to 15 cm are sprayed with the preparation of active compound such that the particular amounts of active compound desired are applied per unit area. The concentration of the spray liquor is chosen so that the particular amounts of active compound desired are applied in 1000 l of water/ha.
(§8) After three weeks, the degree of damage to the plants is rated in % damage in comparison to the development of the untreated control.
as §6

[8] = tested on: Galium; test: Post-emergence test/greenhouse; format: in vivo; conditions: after three weeks
Protocol: as §1, §2, §3, §7, §8, §6

[9] = tested on: Avena fatua; test: Post-emergence test/greenhouse; format: in vivo; conditions: 500 g of ai/ha, after three weeks
Protocol: as §1, §2, §3, §7, §8, §6

[10] = tested on: Setaria; test: Post-emergence test/greenhouse; format: in vivo; conditions: after three weeks
Protocol: as §1, §2, §3, §7, §8, §6

[11] = tested on: weeds; test: Post-emergence test; format: in vivo; conditions: result in words
Protocol: as §1, §2, §3, §7, §8, §6

[12] = tested on: Cotton; test: Pre-emergence test/greenhouse; format: in vivo; conditions: 500 g of ai/ha, after three weeks, crop plant
Protocol: as §1, §2, §3, §4, §5, §6

[13] = tested on: Amaranthus; test: Pre-emergence test/greenhouse; format: in vivo; conditions: after three weeks
Protocol: as §1, §2, §3, §4, §5, §6

[14] = tested on: Eriochloa; test: Pre-emergence test/greenhouse; format: in vivo; conditions: 500 g of ai/ha, after three weeks
Protocol: as §1, §2, §3, §4, §5, §6

[15] = tested on: Lolium; test: Pre-emergence test/greenhouse; format: in vivo; conditions: 500 g of ai/ha, after three weeks
Protocol: as §1, §2, §3, §4, §5, §6

[16] = logP by HPLC on reversed-phase column (EEC directive 79/831 Annex V.A8); format: physicochemical
Protocol: The lopP values given in Table 1 were determined in accordance with EEC directive 79/831 Annex V.A8 by HPLC (High Performance Liquid Chromatography) on a reversed-phase column (C 18). Temperature: 43° C. (a) Mobile phases for the determination in the acidic range: 0.1% aqueous phosphoric acid, acetonitrile; linear gradient of 10% acetonitrile to 90% acetonitrile—corresponding data in Table 1 are labelled a). Calibration was carried out using unbranched alkan-2-ones (with 3 to 16 carbon atoms) whose logP values are known (determination of the logP values by the retention times using linear interpolation between two successive alkanones).

[17] = tested on: Amaranthus; test: Post-emergence test/greenhouse; format: in vivo; conditions: after three weeks
Protocol: as §1, §2, §3, §7, §8, §6

[18] = tested on: Sinapis; test: Post-emergence test/greenhouse; format: in vivo; conditions: after three weeks
Protocol: as §1, §2, §3, §7, §8, §6

[19] = tested on: Matricaria; test: Pre-emergence test/greenhouse; format: in vivo; conditions: 125 g of ai/ha, after three weeks
Protocol: as §1, §2, §3, §4, §5, §6

[20] = tested on: Veronica; test: Pre-emergence test/greenhouse; format: in vivo; conditions: 125 g of ai/ha, after three weeks
Protocol: as §1, §2, §3, §4, §5, §6

[21] = tested on: Sinapis; test: Pre-emergence test/greenhouse; format: in vivo; conditions: 500 g of ai/ha, after three weeks
Protocol: as §1, §2, §3, §4, §5, §6

[22] = tested on: Wheat; test: Pre-emergence test/greenhouse; format: in vivo; conditions: 500 g of ai/ha, after three weeks, crop plant
Protocol: as §1, §2, §3, §4, §5, §6

[23] = tested on: Digitaria; test: Pre-emergence test/greenhouse; format: in vivo; conditions: 500 g of ai/ha, after three weeks
Protocol: as §1, §2, §3, §4, §5, §6

[24] = tested on: Sugar beet; test: Pre-emergence test/greenhouse; format: in vivo; conditions: 500 g of ai/ha, after three weeks, crop plant
Protocol: as §1, §2, §3, §4, §5, §6

[25] = reversed-phase HPLC column (C 18); a) acidic range: 0.1% aqueous phosphoric acid, acetonitrile gradient, HPLC C 18, 43° C., read-out: logP

CC(C)(C)N(C(=O)COc1nnc(C(F)(F)F)s1)c1ccc(Cl)cc1 [Example 1, N-(t-butyl)-N-(4-chlorophenyl)-2-(5-trifluoromethyl-1,3,4-thiadiazol-2-yl-oxy)-acetamide]
melting point: 82 °C | degree of damage, Maize ([1]; 500 g of ai/ha): 0% | degree of damage, Avena fatua [2]: 80% | degree of damage, Alopecurus [3]: 80% | degree of damage, Echinochloa [4]: 95% | degree of damage, Setaria ([5]; 500 g of ai/ha): 100% | activity against weeds [6]: strong activity | degree of damage, Ipomoea [7]: 90% | degree of damage, Galium ([8]; 500 g of ai/ha): 90% | degree of damage, Avena fatua [9]: 80% | degree of damage, Setaria ([10]; 500 g of ai/ha): 90% | activity against weeds [11]: strong activity

C#CCN(C(=O)COc1nnc(C(F)(F)F)s1)c1cccc(C(F)(F)F)c1 [Example 3]
degree of damage, Maize ([1]; 500 g of ai/ha): 0% | degree of damage, Cotton [12]: 0% | degree of damage, Amaranthus ([13]; 500 g of ai/ha): 100% | degree of damage, Eriochloa [14]: 95% | degree of damage, Setaria ([5]; 500 g of ai/ha): 100% | degree of damage, Lolium [15]: 100% | chromatographic logP [16, 25]: 3.45 | activity against weeds [6]: strong activity | degree of damage, Galium ([8]; 2000 g of ai/ha): 90% | degree of damage, Amaranthus ([17]; 2000 g of ai/ha): 100% | degree of damage, Sinapis ([18]; 2000 g of ai/ha): 100% | degree of damage, Setaria ([10]; 2000 g of ai/ha): 95% | activity against weeds [11]: strong activity

C#CCN(C(=O)COc1nnc(C(F)(F)F)s1)c1ccc(F)cc1 [Example 4]
degree of damage, Maize ([1]; 125 g of ai/ha): 0% | degree of damage, Matricaria [19]: 100% | degree of damage, Veronica [20]: 100% | degree of damage, Amaranthus ([13]; 125 g of ai/ha): 100% | degree of damage, Setaria ([5]; 125 g of ai/ha): 100% | chromatographic logP [16, 25]: 2.97 | activity against weeds [6]: strong activity | degree of damage, Galium ([8]; 2000 g of ai/ha): 90% | degree of damage, Amaranthus ([17]; 2000 g of ai/ha): 95% | degree of damage, Sinapis ([18]; 2000 g of ai/ha): 95% | degree of damage, Setaria ([10]; 2000 g of ai/ha): 90% | activity against weeds [11]: strong activity

C#CCN(C(=O)COc1nc2ccccc2o1)c1ccc(F)cc1 [Example 6]
melting point: 138 °C | degree of damage, Amaranthus ([13]; 500 g of ai/ha): 100% | degree of damage, Sinapis [21]: 95% | degree of damage, Setaria ([5]; 500 g of ai/ha): 100% | activity against weeds [6]: strong activity | degree of damage, Galium ([8]; 500 g of ai/ha): 90% | degree of damage, Amaranthus ([17]; 500 g of ai/ha): 90% | degree of damage, Setaria ([10]; 500 g of ai/ha): 90% | activity against weeds [11]: strong activity

CC(C)(C)N(C(=O)COc1nnc(C(F)(F)F)s1)c1ccc(F)cc1 [Example 7]
melting point: 85 °C | degree of damage, Wheat [22]: 0% | degree of damage, Digitaria [23]: 100% | degree of damage, Alopecurus [3]: 90% | degree of damage, Amaranthus ([13]; 500 g of ai/ha): 95% | degree of damage, Eriochloa [14]: 100% | degree of damage, Setaria ([5]; 500 g of ai/ha): 100% | activity against weeds [6]: strong activity | degree of damage, Galium ([8]; 1000 g of ai/ha): 95% | degree of damage, Amaranthus ([17]; 1000 g of ai/ha): 80% | degree of damage, Sinapis ([18]; 1000 g of ai/ha): 80% | degree of damage, Setaria ([10]; 1000 g of ai/ha): 80% | activity against weeds [11]: strong activity

CC(C)(C)N(C(=O)COc1nnc(C(F)(F)F)s1)c1cccc(Cl)c1 [Example 9]
melting point: 84 °C | degree of damage, Maize ([1]; 500 g of ai/ha): 0% | degree of damage, Echinochloa [4]: 95% | degree of damage, Setaria ([5]; 500 g of ai/ha): 100% | degree of damage, Sugar beet [24]: 0% | activity against weeds [6]: strong activity | degree of damage, Ipomoea [7]: 90% | degree of damage, Galium ([8]; 500 g of ai/ha): 90% | degree of damage, Setaria ([10]; 500 g of ai/ha): 70% | activity against weeds [11]: strong activity

CC(C)(C)N(C(=O)CO)c1ccc(Cl)cc1 [III-1, N-(t-butyl)-N-(4-chlorophenyl)-2-hydroxyacetamide]
chromatographic logP ([16]; reversed-phase HPLC column (C 18), pH=2.3, read-out: logP (at pH=2.3)): 2.54

C#CCN(C(=O)CO)c1ccc(F)cc1 [III-2, N-(4-fluorophenyl)-N-(2-propinyl)-2-hydroxyacetamide]
melting point: 57 °C

CC(C)(C)N(C(=O)CCl)c1ccc(Cl)cc1 [IV-1, N-(t-butyl)-N-(4-chlorophenyl)-2-chloroacetamide]
chromatographic logP ([16]; reversed-phase HPLC column (C 18), pH=2.5, read-out: logP (at pH=2.5)): 3.34

C#CCN(C(=O)CCl)c1ccc(F)cc1 [IV-2, N-(4-fluorophenyl)-N-(2-propinyl)-2-chloroacetamide]
logP [16]: logP = 2.69^a)
